Data taken from publication PMC6658524, “Lysosomal degradation of newly formed insulin granules contributes to β cell failure in diabetes” (Nature Communications, 2019).

How the values were obtained:
p70S6K = biological target: T1, p70S6K (Homo sapiens, UniProt P23443); assay: 60-kinase selectivity panel, % inhibition at […]; assay type: biochemical
T1 construct: gene RPS6KB1

mTOR = mTOR (Homo sapiens, UniProt P42345); assay: 60-kinase selectivity panel, % inhibition at […]; assay type: biochemical
p38γ (SAPK3) = biological target: T2, p38γ (SAPK3) (Homo sapiens, UniProt P53778); assay: mobility shift assay (Caliper); confirmed in 60-kinase panel, % inhibition at […]; assay type: biochemical
T2 construct: gene MAPK12

p38δ = biological target: T3, p38δ (Homo sapiens, UniProt O15264); assay: biochemical; set-up: Kinase inhibition by mobility shift assay (Caliper)
T3 construct: gene MAPK13

p38α = biological target: T4, p38α (Homo sapiens, UniProt Q16539); assay: biochemical; set-up: Kinase inhibition by mobility shift assay (Caliper)
T4 construct: gene MAPK14

PKD1 = biological target: T5, PKD1 (Homo sapiens, UniProt Q15139); assay: biochemical; set-up: Kinase inhibition by mobility shift assay (Caliper)
T5 construct: gene PRKD1

AMPKα2(h) = biological target: T6, AMPKα2(h) (Homo sapiens, UniProt P54646); assay: biochemical; set-up: Eurofins KinaseProfiler panel of 60 kinases, per cent inhibition
T6 construct: gene PRKAA2
Source text: (§1) A more detailed account of the discovery, chemistry and biochemical properties of this novel class of selective p38δ inhibitors will be given elsewhere.

Aurora-B(h) = biological target: T7, Aurora-B(h) (Homo sapiens, UniProt Q96GD4); assay: biochemical; set-up: Eurofins KinaseProfiler panel of 60 kinases, per cent inhibition
T7 construct: gene AURKB
Source text: as §1

CDK1/cyclinB(h) = CDK1/cyclinB(h) (Homo sapiens, UniProt P06493); assay: biochemical; set-up: Eurofins KinaseProfiler panel of 60 kinases, per cent inhibition
Source text: as §1

CDK5/p25(h) = biological target: T8, CDK5/p25(h) (Homo sapiens, UniProt Q00535); assay: biochemical; set-up: Eurofins KinaseProfiler panel of 60 kinases, per cent inhibition
T8 construct: p25
Source text: as §1

CDK9/cyclin T1(h) = CDK9/cyclin T1(h) (Homo sapiens, UniProt P50750); assay: biochemical; set-up: Eurofins KinaseProfiler panel of 60 kinases, per cent inhibition
Source text: as §1

EphB1(h) = EphB1(h) (Homo sapiens, UniProt P54762); assay: biochemical; set-up: Eurofins KinaseProfiler panel of 60 kinases, per cent inhibition
Source text: as §1

Flt1(h) = Flt1(h) (Homo sapiens, UniProt P17948); assay: biochemical; set-up: Eurofins KinaseProfiler panel of 60 kinases, per cent inhibition
Source text: as §1

GSK3α(h) = biological target: T9, GSK3α(h) (Homo sapiens, UniProt P49840); assay: biochemical; set-up: Eurofins KinaseProfiler panel of 60 kinases, per cent inhibition
T9 construct: gene GSK3A
Source text: as §1

LRRK2(h) = LRRK2(h) (Homo sapiens, UniProt Q5S007); assay: biochemical; set-up: Eurofins KinaseProfiler panel of 60 kinases, per cent inhibition
Source text: as §1

Lck(h) activated = Lck(h) activated (Homo sapiens, UniProt P06239); assay: biochemical; set-up: Eurofins KinaseProfiler panel of 60 kinases, per cent inhibition
Source text: as §1

Lyn(h) = Lyn(h) (Homo sapiens, UniProt P07948); assay: biochemical; set-up: Eurofins KinaseProfiler panel of 60 kinases, per cent inhibition
Source text: as §1

MST2(h) = biological target: T10, MST2(h) (Homo sapiens, UniProt Q13188); assay: biochemical; set-up: Eurofins KinaseProfiler panel of 60 kinases, per cent inhibition
T10 construct: gene STK3
Source text: as §1

PAK4(h) = PAK4(h) (Homo sapiens, UniProt O96013); assay: biochemical; set-up: Eurofins KinaseProfiler panel of 60 kinases, per cent inhibition
Source text: as §1

PEK(h) = biological target: T11, PEK(h) (Homo sapiens, UniProt Q9NZJ5); assay: biochemical; set-up: Eurofins KinaseProfiler panel of 60 kinases, per cent inhibition
T11 construct: gene EIF2AK3
Source text: as §1

PKBα(h) = biological target: T12, PKBα(h) (Homo sapiens, UniProt P31749); assay: biochemical; set-up: Eurofins KinaseProfiler panel of 60 kinases, per cent inhibition
T12 construct: gene AKT1
Source text: as §1

PKCε(h) = biological target: T13, PKCε(h) (Homo sapiens, UniProt Q02156); assay: biochemical; set-up: Eurofins KinaseProfiler panel of 60 kinases, per cent inhibition
T13 construct: gene PRKCE
Source text: as §1

PKCζ(h) = biological target: T14, PKCζ(h) (Homo sapiens, UniProt Q05513); assay: biochemical; set-up: Eurofins KinaseProfiler panel of 60 kinases, per cent inhibition
T14 construct: gene PRKCZ
Source text: as §1

Ron(h) = biological target: T15, Ron(h) (Homo sapiens, UniProt Q04912); assay: biochemical; set-up: Eurofins KinaseProfiler panel of 60 kinases, per cent inhibition
T15 construct: gene MST1R
Source text: as §1

Rsk1(h) = biological target: T16, Rsk1(h) (Homo sapiens, UniProt Q15418); assay: biochemical; set-up: Eurofins KinaseProfiler panel of 60 kinases, per cent inhibition
T16 construct: gene RPS6KA1
Source text: as §1

SAPK2a(h) = biological target: T17, SAPK2a(h) (Homo sapiens, UniProt Q16539); assay: biochemical; set-up: Eurofins KinaseProfiler panel of 60 kinases, per cent inhibition
T17 construct: gene MAPK14
Source text: as §1

Chain of Lyn(h) (P07948 whole entry): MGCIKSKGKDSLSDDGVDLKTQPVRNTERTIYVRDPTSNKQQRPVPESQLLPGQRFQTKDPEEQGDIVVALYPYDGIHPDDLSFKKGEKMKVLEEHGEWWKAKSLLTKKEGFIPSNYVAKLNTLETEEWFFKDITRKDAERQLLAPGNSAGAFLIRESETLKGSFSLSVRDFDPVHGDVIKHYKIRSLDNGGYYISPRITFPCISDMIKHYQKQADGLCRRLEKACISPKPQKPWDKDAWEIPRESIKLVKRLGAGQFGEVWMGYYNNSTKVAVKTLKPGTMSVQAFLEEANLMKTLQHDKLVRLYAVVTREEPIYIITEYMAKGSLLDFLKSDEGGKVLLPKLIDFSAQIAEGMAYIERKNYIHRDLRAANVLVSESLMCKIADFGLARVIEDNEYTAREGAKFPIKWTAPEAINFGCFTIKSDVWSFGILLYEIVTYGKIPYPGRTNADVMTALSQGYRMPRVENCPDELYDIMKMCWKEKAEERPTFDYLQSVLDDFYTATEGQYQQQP
Chain of Lck(h) activated (P06239 whole entry): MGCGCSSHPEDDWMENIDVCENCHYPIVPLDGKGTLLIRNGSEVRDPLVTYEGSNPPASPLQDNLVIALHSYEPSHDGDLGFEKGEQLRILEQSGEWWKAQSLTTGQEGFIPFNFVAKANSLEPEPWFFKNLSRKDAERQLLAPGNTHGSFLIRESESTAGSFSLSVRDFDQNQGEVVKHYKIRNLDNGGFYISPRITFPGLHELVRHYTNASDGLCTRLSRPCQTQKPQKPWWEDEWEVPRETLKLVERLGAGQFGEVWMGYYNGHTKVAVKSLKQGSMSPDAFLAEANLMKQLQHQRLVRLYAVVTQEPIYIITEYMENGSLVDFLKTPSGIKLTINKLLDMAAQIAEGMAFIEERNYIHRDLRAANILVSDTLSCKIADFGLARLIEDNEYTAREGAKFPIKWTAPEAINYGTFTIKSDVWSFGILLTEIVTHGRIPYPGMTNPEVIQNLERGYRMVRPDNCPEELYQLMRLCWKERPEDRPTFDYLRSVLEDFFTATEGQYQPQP
Chain of PAK4(h) (O96013 whole entry): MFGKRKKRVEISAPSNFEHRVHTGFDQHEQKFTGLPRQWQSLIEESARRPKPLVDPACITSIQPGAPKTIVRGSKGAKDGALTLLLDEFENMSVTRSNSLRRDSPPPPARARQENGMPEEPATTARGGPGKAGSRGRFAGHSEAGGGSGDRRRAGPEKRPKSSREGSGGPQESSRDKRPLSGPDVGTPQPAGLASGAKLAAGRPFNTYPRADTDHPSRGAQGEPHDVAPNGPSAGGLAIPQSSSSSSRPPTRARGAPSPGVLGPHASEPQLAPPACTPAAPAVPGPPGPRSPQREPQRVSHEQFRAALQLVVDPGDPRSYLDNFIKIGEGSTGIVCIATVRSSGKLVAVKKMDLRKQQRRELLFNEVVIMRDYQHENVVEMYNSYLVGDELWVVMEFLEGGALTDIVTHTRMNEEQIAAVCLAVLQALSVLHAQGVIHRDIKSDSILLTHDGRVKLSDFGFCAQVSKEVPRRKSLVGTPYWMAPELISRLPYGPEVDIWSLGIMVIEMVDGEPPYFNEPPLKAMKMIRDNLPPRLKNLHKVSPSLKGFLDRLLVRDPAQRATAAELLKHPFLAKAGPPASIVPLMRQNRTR
Chain of LRRK2(h) (Q5S007 whole entry): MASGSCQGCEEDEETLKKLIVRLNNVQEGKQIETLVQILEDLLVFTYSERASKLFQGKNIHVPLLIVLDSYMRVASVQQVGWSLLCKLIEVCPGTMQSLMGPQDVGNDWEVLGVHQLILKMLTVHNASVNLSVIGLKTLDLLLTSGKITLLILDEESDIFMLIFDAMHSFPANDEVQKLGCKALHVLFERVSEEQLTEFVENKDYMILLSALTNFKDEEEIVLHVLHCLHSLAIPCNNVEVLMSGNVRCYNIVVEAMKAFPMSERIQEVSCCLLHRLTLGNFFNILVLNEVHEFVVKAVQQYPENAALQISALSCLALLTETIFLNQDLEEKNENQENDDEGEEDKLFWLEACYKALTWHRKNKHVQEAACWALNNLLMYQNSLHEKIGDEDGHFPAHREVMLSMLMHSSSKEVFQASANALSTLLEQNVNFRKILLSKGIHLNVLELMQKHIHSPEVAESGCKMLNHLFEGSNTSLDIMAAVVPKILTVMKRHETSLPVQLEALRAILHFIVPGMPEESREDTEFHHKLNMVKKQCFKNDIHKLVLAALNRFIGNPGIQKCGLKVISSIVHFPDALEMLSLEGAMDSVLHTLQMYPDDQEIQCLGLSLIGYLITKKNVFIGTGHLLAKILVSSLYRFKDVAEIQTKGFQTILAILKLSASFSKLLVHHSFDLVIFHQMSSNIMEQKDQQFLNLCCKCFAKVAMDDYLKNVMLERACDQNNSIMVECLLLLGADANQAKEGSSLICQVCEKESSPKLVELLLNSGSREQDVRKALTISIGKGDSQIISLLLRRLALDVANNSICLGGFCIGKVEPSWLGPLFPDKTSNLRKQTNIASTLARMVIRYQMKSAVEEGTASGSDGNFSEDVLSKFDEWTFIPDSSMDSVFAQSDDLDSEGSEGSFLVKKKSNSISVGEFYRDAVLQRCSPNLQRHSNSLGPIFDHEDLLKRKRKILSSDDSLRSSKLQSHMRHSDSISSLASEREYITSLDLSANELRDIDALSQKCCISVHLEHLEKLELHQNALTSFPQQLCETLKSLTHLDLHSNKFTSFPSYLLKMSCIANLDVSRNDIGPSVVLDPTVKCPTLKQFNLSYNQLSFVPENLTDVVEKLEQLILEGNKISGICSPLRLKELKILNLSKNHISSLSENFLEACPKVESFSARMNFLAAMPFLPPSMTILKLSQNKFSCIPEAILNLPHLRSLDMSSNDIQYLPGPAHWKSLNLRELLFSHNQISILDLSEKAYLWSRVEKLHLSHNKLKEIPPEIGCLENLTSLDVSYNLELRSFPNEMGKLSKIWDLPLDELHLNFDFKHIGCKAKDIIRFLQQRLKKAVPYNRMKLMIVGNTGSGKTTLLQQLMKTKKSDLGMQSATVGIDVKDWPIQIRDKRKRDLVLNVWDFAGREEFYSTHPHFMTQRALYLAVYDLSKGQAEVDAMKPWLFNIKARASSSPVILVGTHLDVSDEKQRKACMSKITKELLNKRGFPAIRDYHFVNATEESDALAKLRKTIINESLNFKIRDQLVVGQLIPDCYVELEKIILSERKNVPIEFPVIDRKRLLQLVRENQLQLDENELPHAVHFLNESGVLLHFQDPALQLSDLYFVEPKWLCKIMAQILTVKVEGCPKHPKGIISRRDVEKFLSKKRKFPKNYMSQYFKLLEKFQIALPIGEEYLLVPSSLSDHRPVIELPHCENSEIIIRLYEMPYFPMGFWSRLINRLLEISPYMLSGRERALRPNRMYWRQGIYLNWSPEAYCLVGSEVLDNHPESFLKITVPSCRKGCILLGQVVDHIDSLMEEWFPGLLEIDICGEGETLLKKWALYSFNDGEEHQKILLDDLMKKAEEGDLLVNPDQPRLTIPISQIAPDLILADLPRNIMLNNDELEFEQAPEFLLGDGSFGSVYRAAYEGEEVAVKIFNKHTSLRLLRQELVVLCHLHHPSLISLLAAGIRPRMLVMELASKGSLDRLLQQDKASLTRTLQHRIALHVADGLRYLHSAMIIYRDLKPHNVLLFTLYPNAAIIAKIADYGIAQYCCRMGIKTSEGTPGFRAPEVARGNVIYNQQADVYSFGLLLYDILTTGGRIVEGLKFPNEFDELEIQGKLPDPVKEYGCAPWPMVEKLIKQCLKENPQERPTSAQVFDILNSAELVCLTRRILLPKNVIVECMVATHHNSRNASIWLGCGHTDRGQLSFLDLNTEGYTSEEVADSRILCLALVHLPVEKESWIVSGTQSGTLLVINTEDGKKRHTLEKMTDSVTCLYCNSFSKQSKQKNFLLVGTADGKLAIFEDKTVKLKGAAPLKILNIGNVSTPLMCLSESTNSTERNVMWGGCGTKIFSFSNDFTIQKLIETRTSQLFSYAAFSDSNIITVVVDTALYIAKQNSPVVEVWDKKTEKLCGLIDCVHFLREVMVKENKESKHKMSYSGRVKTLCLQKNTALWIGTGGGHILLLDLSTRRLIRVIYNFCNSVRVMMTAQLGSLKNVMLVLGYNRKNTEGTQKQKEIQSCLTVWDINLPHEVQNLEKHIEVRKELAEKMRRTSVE
T16 sequence (Q15418 whole entry): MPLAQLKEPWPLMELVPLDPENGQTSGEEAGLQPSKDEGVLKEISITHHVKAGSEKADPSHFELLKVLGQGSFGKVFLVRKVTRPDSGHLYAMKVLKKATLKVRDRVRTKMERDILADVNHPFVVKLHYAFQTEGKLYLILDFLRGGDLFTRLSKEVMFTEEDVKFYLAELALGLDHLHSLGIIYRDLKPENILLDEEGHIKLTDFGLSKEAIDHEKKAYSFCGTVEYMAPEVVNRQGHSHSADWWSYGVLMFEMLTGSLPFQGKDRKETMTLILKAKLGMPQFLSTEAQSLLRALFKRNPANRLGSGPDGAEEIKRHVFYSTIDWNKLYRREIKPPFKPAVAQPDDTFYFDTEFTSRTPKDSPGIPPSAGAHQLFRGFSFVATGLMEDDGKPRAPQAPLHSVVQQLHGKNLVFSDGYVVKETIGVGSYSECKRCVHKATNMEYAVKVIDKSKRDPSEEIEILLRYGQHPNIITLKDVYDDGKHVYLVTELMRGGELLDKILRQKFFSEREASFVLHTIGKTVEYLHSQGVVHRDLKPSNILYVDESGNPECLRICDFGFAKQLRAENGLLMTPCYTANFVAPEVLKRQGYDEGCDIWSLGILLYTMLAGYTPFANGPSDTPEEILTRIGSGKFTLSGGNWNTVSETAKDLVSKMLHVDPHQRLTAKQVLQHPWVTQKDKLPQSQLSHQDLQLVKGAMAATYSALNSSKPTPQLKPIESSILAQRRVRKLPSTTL

## CCN1CCOc2nc(N3CCOCC3)nc(-c3ccc(NC(=O)OC)cc3)c2C1=O [Compound A]
p70S6K
  % inhibition at 10 μM: 59
mTOR
  % inhibition at 10 μM: 48
p38γ (SAPK3)
  % inhibition at 10 μM: 64
p38δ
  IC50: 0.38 µM
p38α
  IC50: > 30 µM
PKD1
  IC50: > 30 µM
AMPKα2(h)
  inhibition at 1 µM: -5%
  inhibition at 10 µM: 5%
Aurora-B(h)
  inhibition at 1 µM: -24%
  inhibition at 10 µM: -28%
CDK1/cyclinB(h)
  inhibition at 1 µM: -5%
  inhibition at 10 µM: 4%
CDK5/p25(h)
  inhibition at 1 µM: -2%
  inhibition at 10 µM: -2%
CDK9/cyclin T1(h)
  inhibition at 1 µM: -16%
  inhibition at 10 µM: 3%
EphB1(h)
  inhibition at 1 µM: 6%
  inhibition at 10 µM: 10%
Flt1(h)
  inhibition at 1 µM: -30%
  inhibition at 10 µM: -28%
GSK3α(h)
  inhibition at 1 µM: -9%
  inhibition at 10 µM: -7%
LRRK2(h)
  inhibition at 1 µM: -18%
  inhibition at 10 µM: -11%
Lck(h) activated
  inhibition at 1 µM: -7%
  inhibition at 10 µM: 13%
Lyn(h)
  inhibition at 1 µM: -2%
  inhibition at 10 µM: 13%
MST2(h)
  inhibition at 1 µM: -16%
  inhibition at 10 µM: -2%
PAK4(h)
  inhibition at 1 µM: -2%
  inhibition at 10 µM: 4%
PEK(h)
  inhibition at 1 µM: -12%
  inhibition at 10 µM: -11%
PKBα(h)
  inhibition at 1 µM: 14%
  inhibition at 10 µM: 17%
PKCε(h)
  inhibition at 1 µM: 8%
  inhibition at 10 µM: 12%
PKCζ(h)
  inhibition at 1 µM: 0%
  inhibition at 10 µM: 10%
Ron(h)
  inhibition at 1 µM: 10%
  inhibition at 10 µM: 9%
Rsk1(h)
  inhibition at 1 µM: -11%
  inhibition at 10 µM: 5%
SAPK2a(h)
  inhibition at 1 µM: -16%
  inhibition at 10 µM: 9%
